From patent publication US9439874B2, “Food composition for nourishing, maintaining and cultivating a variety of stem cells and a method for manufacturing the same” (THE WRITER OF RESVERATROL BIOTECH R&D CO., LTD., priority 2012, dated 2016)

Key:
[1] = isomerization under irradiation of UV analyzer; assay type: physicochemical; conditions: UV analyzer 136 μw/cm^2, embedded vs unembedded
Source text: 2. Solutions to the problem of cis & trans structures and transformation of resveratrol. Trans-resveratrol is very instable and will transform into cis-resveratrol under the UV irradiation. After its aqueous solution (pH1-7) kept in dark place for 28 day, 4.7% of the trans-resveratrol will transform into cis-resveratrol. Low water solubility and poor stability under UV irradiation restrict the all-purpose application. Therefore, HP-β-CD is used to embed the resveratrol into inclusion compound. […] Moreover, the food formula packaged by capsule solves the problems of oxidization misgivings and stability.

[2] = test system: nematodes, drosophila, African Carp and mouse; conditions: cited from earlier work
[3] = cited from earlier work
[4] = test system: human lung adenocarcinoma A549 cells; conditions: 20 μM, EGF-induced; cited from earlier work
L-8 = conditions: mouse, in vivo; cited from earlier work
Lymphoma Raji cells = conditions: in vitro; cited from earlier work
esophageal cancer cell = conditions: cited from earlier work
Lewis lung carcinoma = conditions: mouse, in vivo; cited from earlier work
MDA-MB-231 cell = conditions: combination with TRAIL; cited from earlier work
[5] = test system: cervical cancer Hela cells; conditions: cited from earlier work
[6] = test system: human gastric cancer BGC823 cells; conditions: cited from earlier work
[7] = test system: human telomerase reverse transcriptase (hTERT); conditions: dose- and time-dependent; cited from earlier work
[8] = test system: human laryngeal cancer Hep-2 cell; conditions: cited from earlier work
[9] = test system: malignant glioma cell line U87 and cancer stem cells (CSCs); conditions: cited from earlier work
cancer stem cells = conditions: cited from earlier work
[10] = test system: rat mesenchymal stem cells; conditions: cited from earlier work

## Oc1ccc(C=Cc2cc(O)cc(O)c2)cc1 [resveratrol]
[1]
  isomerization under UV irradiation: quickens up isomerization
[2]
  prolongation of life: 30-75%
[3]; ethyl ether, chloroform, methanol, ethanol, acetone, acetic ether
  solubility in organic solvents: soluble
[3]; water
  solubility in water: hardly soluble (slightly soluble)
[4]
  A549 cells' invasion: inhibit
L-8
  tumor-bearing mice L-8 generation: inhibit
Lymphoma Raji cells
  IL-8 mRNA expression of lymphoma Raji cells: inhibit
  proliferation of lymphoma Raji cells: inhibit
Esophageal cancer cell
  esophageal cancer cell apoptosis: induce
Lewis lung carcinoma
  growth of Lewis lung carcinoma in mice: inhibiting the growth
MDA-MB-231 cell
  TRAIL-induced cell apoptosis: enhanced
[5]
  in vitro growth of cervical cancer Hela cells: obvious inhibition effects
[6]
  proliferation of BGC823 cells: inhibit
[6]; with the extension of the time
  telomerase activity in BGC823: declined
[7]
  expression of hTERT mRNA and protein: down-regulated
[8]
  Hep-2 cell proliferation: suppress
[9]
  apoptosis of U87 and cancer stem cells: induce
Cancer stem cells; high concentration of resveratrol with radiotherapy
  cancer stem cells survival: one-third
Cancer stem cells; high concentration of resveratrol, mice bearing tumor
  enhancement of radiotherapy: 30%-50%

## O=c1c(O)c(-c2ccc(O)c(O)c2)oc2cc(O)cc(O)c12 [quercetin]
[10]
  proliferation and differentiation of mesenchymal stem cells of bone marrow: promote
[10]; differentiation of mesenchymal stem cells
  expression of BMP2 mRNA: increase
